Laboratory results reported in paper PMC8277899, “A novel RyR1-selective inhibitor prevents and rescues sudden death in mouse models of malignant hyperthermia and heat stroke” (Nature Communications, 2021).
Where “and” joins values, the source holds several entries; their conditions need not be identical. Identical values can stand only once.

Assays:
[1] = Pharmacokinetics after i.p. administration in mice; assay type: in vivo, mouse; details: 8-times injection of 1 mg/kg at 10 min intervals
[2] = tested on: FDB muscle cells from WT mice; assay: Ca2+ imaging (Cal520, fura-2) of isolated single FDB cells from WT mice; assay type: cell-based, mouse
Experimental: (§1) WT and mutant mice (R2509C, 8- to 20-week old; R163C, 12- to 16-week old, and G2435R, 12- to 16-week old) were euthanized and flexor digitorum brevis (FDB) muscles were dissected and incubated with 2 mg/mL collagenase (Worthington Biochemical Co., NJ, USA) in the HEPES-Krebs solution containing 2 mg/mL bovine serum albumin for 2–3 h at 37 °C. Following incubation, single cells were separated by gentle trituration in collagenase-free HEPES-Krebs solution. Isolated single FDB cells were seeded on a laminin-coated cover slip of the 35 mm glass-bottom dish or on 96 well plate coated with Cultrex basement membrane matrix (Trevigen, Minneapolis, USA).
Isolated single FDB cells were incubated with 4 µM Cal520-AM (AAT Bioquest, CA, USA) or fura-2-AM (Thermo Fisher Scientific) dye in the HEPES-Krebs solution (140 mM NaCl, 5 mM KCl, 2 mM CaCl2, 1 mM MgCl2, 11 mM glucose, 5 mM HEPES, pH 7.4) for 30 min at 37 °C. The cells were then washed three times with the HEPES-Krebs solution to remove excess dye, and after 30 min of de-esterification, fluorescence images were obtained with a 20X (NA = 0.75) objective lens of an inverted microscope (Nikon TE2000-E Japan) equipped with the sCMOS camera (Zyla, Andor, Belfast, Northern Ireland) using Metamorph v7 (Molecular Devices). Cal520 was excited at 480 ± 15 nm, and fluorescence was measured at wavelengths of 525 ± 25 nm. […]

R2509C mice = assay: Muscle force in vivo, grip force test (4-grips test), R2509C mice; parameters: species or system mouse; details: for grip force (sheet Fig S6c): single mice
Experimental: Muscle force was measured in vivo by grip-force test. […] The force was measured before and 10 and 60 min after i.p. injection of saline or Cpd1 (10 mg/kg). Mice (8- to 12-week old) were gently held by the tails and allowed them to grasp the horizontally positioned metal bar of the Grip Strength Meter (MK308M, Muromachi Kikai, Tokyo, Japan) with their forelimbs and hindlimbs (4-grips test). Each mouse performed four trials for force measurement at every time point. The highest force value applied to the metal bar was recorded and normalized by body weight.

RyR1 channel = tested on: RyR1 channel; parameters: method as in PMID 31299492; details: HEK293 cell-based assay; read-out: IC50 for inhibiting the RyR1 channel; cited from earlier work
[3] = tested on: FDB muscle cells from R2509C mice; assay: Ca2+ imaging (Cal520, fura-2) of isolated single FDB cells from R2509C mice, rest, halothane, isoflurane; assay type: cell-based, mouse
Experimental: as §1
Isolated single FDB cells were incubated with 4 µM Cal520-AM (AAT Bioquest, CA, USA) or fura-2-AM (Thermo Fisher Scientific) dye in the HEPES-Krebs solution (140 mM NaCl, 5 mM KCl, 2 mM CaCl2, 1 mM MgCl2, 11 mM glucose, 5 mM HEPES, pH 7.4) for 30 min at 37 °C. The cells were then washed three times with the HEPES-Krebs solution to remove excess dye, and after 30 min of de-esterification, fluorescence images were obtained with a 20X (NA = 0.75) objective lens of an inverted microscope (Nikon TE2000-E Japan) equipped with the sCMOS camera (Zyla, Andor, Belfast, Northern Ireland) using Metamorph v7 (Molecular Devices). Cal520 was excited at 480 ± 15 nm, and fluorescence was measured at wavelengths of 525 ± 25 nm. Fura-2 was excited at alternating lights of 340 ± 6 nm and 380 ± 6 nm, fluorescent light was detected at 510 ± 40 nm, and the ratio of fluorescence excited at 340 nm to that at 380 nm was determined. Imaging experiments were carried out at 26 °C by superfusing a HEPES-Krebs solution with or without halothane or isoflurane. Cpd1 was administered 5 min before measurements. For Mn^2+ quenching experiments, fura-2 was excited at 360 ± 12 nm and emitted fluorescence at 510 ± 40 nm was monitored. The cells were perfused with basal Krebs solution (140 mM NaCl, 5 mM KCl, 1 mM MgCl2, 11 mM glucose, 2 mM CaCl2, 10 mM HEPES, pH 7.4) for 60 s to obtain the baseline signal and then perfused with Mn^2+ quenching Krebs solution (140 mM NaCl, 5 mM KCl, 1 mM MgCl2, 11 mM glucose, 0.5 mM MnCl2, 10 mM HEPES, pH 7.4) for 180 s followed by reperfusion with basal Krebs solution for 120 s.

[4] = Metabolic stability in mouse liver microsomes; assay type: in vitro ADME; details: 0.5 μM, NADPH
Experimental: Cpd1 (final concentration was 0.5 μM) was incubated with human or mouse hepatic microsomes (XenoTech Ltd, Kansas City, KS) with nicotinamide adenine dinucleotide phosphate (NADPH) for 10 and 60 min at 37 °C. Each reaction was stopped by acetonitrile, and the value of unchanged compound 1 was determined by quantitating using LC–MS/MS, and the metabolic stability was evaluated as a remaining rate (%).

[5] = tested on: FDB muscle fibers from R163C mice; assay: In vitro [Ca2+]i by Ca2+-selective microelectrode in FDB fibers from R163C mice; assay type: cell-based, mouse; details: 0-5 µM
Experimental: as §1
Ca^2+ ion specific microelectrode recordings were performed as follows[38],[50]. For in vivo measurements, WT and heterozygous R163C mice (12- to 16-week old) were anesthetized by i.p. injection of 100 mg/kg ketamine and 5 mg/kg xylazine and placed on a 37 °C heating pad and their temperature was monitored. The vastus lateralis was exposed surgically after which its muscle fibers were impaled with double-barreled Ca^2+-selective microelectrode, and the potentials were recorded via a high-impedance amplifier (WPI Duo 773 electrometer; WPI, Sarasota, FL, USA). […] Muscle fibers were impaled with the microelectrodes as above and [Ca^2+]i was determined in the presence of varying (0–5 µM) concentrations of Cpd1.

With `CCCCCCCCn1cc(C(=O)O)c(=O)c2cc3c(cc21)OCO3` [Cpd1, 6,7-(methylenedioxy)-1-octyl-4-quinolone-3-carboxylic acid] the plasma concentration ([1]; female, 10 min) was 70 ng/mL and 90 ng/mL, the plasma concentration ([1]; male, 5 min) was 610 ng/mL and 360 ng/mL and the “effect on resting [Ca2+]i (fura-2)” value ([2]; WT cells, 0.1 and 0.3 µM) was “no significant effect”. The “Ca2+ signal with Cpd1 relative to None = 1 (sheet Fig S1b)” value ([2]; WT, single experiments) was 0.9888 and 0.981 and 0.9775 and 0.9827 and 0.9913, the “grip force (sheet Fig S6c)” value (R2509C mice; 10 min after Cpd1) was 9.25 and 10 and 6.39 and 8.47 and 6.45 and 7.53 and the “grip force (sheet Fig S6c)” value (R2509C mice; 60 min after Cpd1) was 10.04 and 12.86 and 9.79 and 9.69 and 9.84 and 10.9. The “grip force (sheet Fig S6c)” value (R2509C mice; Pre (before administration), Cpd1 group) was 10.64 and 13.19 and 10.54 and 8.58 and 8.65 and 10.63, the “muscle weakness in grip strength test” value (R2509C mice; R2509C mice, after administration of Cpd1) was “muscle weakness was also observed in 10 min but recovered within 60 min” and the IC50 (RyR1 channel) was 12 nM. For the same compound, the “effect on isoflurane-induced increase in [Ca2+]i” value ([3]; R2509C cells, 0.1 μM) was “completely prevented”, the “effect on resting [Ca2+]i (Cal520)” value ([3]; R2509C cells, 0.1 μM) was “reduced” and the “Ca2+ signal (Cal520, F/F0)” value ([3]; R2509C cells, 0.1 μM Cpd1, halothane 0.0001) was 1. The “Ca2+ signal (Cal520, F/F0)” value ([3]; R2509C cells, 0.1 μM Cpd1, halothane 0.001) was 1.0324 and 1.0472 and 0.9774 and 0.9848 and 0.9736, the “Ca2+ signal (Cal520, F/F0)” value ([3]; R2509C cells, 0.1 μM Cpd1, halothane 0.003) was 1.0085 and 1.0149 and 0.9846 and 0.9811 and 0.9717 and the “Ca2+ signal (Cal520, F/F0)” value ([3]; R2509C cells, 0.1 μM Cpd1, halothane 0.01) was 1.0131 and 1.0119 and 0.9966 and 0.9808 and 0.9633. For the same compound, the “Ca2+ signal (Cal520, F/F0)” value ([3]; R2509C cells, 0.1 μM Cpd1, halothane 0.03) was 0.9989 and 1.0012 and 1.0266 and 1.0111 and 1.0033, the “Ca2+ signal (Cal520, F/F0)” value ([3]; R2509C cells, 0.1 μM Cpd1, halothane 0.1) was 1.0006 and 0.9977 and 1.0575 and 1.0571 and 1.0156 and the “Ca2+ signal (fura-2 ratio)” value ([3]; R2509C cells, 0.1 μM Cpd1, isoflurane 0) was 1.236 and 1.532 and 1.49 and 1.463 and 1.64 and 1.372 and 1.497 and 1.401. For the same compound, the “Ca2+ signal (fura-2 ratio)” value ([3]; R2509C cells, 0.1 μM Cpd1, isoflurane 0.1) was 1.237 and 1.533 and 1.482 and 1.467 and 1.643 and 1.374 and 1.485 and 1.496, the “Ca2+ signal (fura-2 ratio)” value ([3]; R2509C cells, 0.1 μM Cpd1, isoflurane 0.2) was 1.24 and 1.549 and 1.492 and 1.502 and 1.673 and 1.396 and 1.504 and 1.444 and the “Ca2+ signal (fura-2 ratio)” value ([3]; R2509C cells, 0.1 μM Cpd1, isoflurane 0.5) was 1.266 and 1.58 and 1.488 and 1.503 and 1.677 and 1.451 and 1.62 and 1.544. The “effect on resting [Ca2+]i (fura-2)” value ([3]; R2509C cells, 0.1 and 0.3 µM) was “reduced [Ca^2+]i in R2509C cells in a dose-dependent manner”, the “effect on halothane-induced increases in [Ca2+]i” value ([3]; R2509C cells, pretreatment 0.1 µM) was “completely abolished” and the “Ca2+ signal with Cpd1 relative to None = 1 (sheet Fig S1b)” value ([3]; R2509C, single experiments) was 0.9373 and 0.9655 and 0.9601 and 0.9482 and 0.7826 and 0.8571. For the same compound, the “remaining rate (residual Cpd1, 0 min = 100%)” value ([4]; 10 min) was 23% and 26% and 28% and 19% and 18%, the “remaining rate (residual Cpd1, 0 min = 100%)” value ([4]; 60 min) was 3% and 2% and 4% and the “effect on [Ca2+]i in quiescent fibers” value [5] was “reduced [Ca^2+]i in R163C fibers in a dose-dependent manner to the level of WT fibers”.
